The source of these data is patent US12295396B2, “Antagonists of T2R54 and compositions and uses thereof” (Firmenich Incorporated, priority 2018, dated 2025).

The experiment addresses T1, hT2R54 (Homo sapiens, UniProt P59534).
T1 construct: expressed in transfected cells; it overexpresses a promiscuous G protein
T1 sequence (P59534 1-338): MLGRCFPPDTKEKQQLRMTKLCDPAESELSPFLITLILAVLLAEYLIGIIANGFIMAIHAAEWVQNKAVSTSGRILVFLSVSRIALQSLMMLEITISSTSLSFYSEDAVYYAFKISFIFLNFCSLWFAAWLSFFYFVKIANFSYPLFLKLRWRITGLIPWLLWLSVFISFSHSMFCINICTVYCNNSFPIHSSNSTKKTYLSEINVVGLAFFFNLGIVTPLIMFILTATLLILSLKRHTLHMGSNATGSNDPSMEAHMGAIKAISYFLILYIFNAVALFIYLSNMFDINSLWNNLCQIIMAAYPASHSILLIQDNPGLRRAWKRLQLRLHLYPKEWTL
Nature of the experiment: Cell-based assay for measuring hT2R54 inhibition (FLIPR calcium, Fluo4AM, acetaminophen as bitter agonist). Conditions: Table 2; cells stably expressing hT2R54 and a promiscuous G protein; read-out: hT2R54 IC50. The method in brief: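 Cells stably co-expressing hT2R54 and a promiscuous G protein were loaded with Fluo4AM and given acetaminophen dose series, alone or with fixed concentrations of test compound. On FLIPR, baseline was recorded for 10 s and fluorescence for 3 min after addition. IC50 is the concentration halving the acetaminophen-alone response.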
As usually defined, the IC50 is the concentration at which inhibition is half-maximal. Consider `CC(=O)c1cc2c(cc1NC(=O)CN1CCN(C(C)=O)CC1)OCCO2` [compound 336], for which the IC50 turned out to be 50 nM.

For the compound `CC(=O)c1cc2c(cc1NC(=O)C(C)N1CCN(C(C)=O)CC1)OCCO2` (stereo not shown) [compound 337], the IC50 worked out at 60 nM.

Take `COCC(=O)N1CCN(CC(=O)Nc2cc3c(cc2C(C)=O)OCCO3)CC1` [compound 338]: the IC50 was found to be 60 nM.

As for `COCCOCC(=O)N1CCN(CC(=O)Nc2cc3c(cc2C(C)=O)OCCO3)CC1` [compound 339], the half-inhibitory concentration (IC50) turned out to be 80 nM. With `CC(=O)c1cc2c(cc1NC(=O)CN1CCN(C(=O)C3CCCO3)CC1)OCCO2` (stereo not shown) [compound 340] the figure was 90 nM; with `CC(=O)c1cc2c(cc1NC(=O)CN1CCN(C(=O)[C@@H]3CCCO3)CC1)OCCO2` [compound 341], 1800 nM. As for `CC(=O)c1cc2c(cc1NC(=O)CN1CCN(C(=O)[C@H]3CCCO3)CC1)OCCO2` [compound 342], the IC50 amounted to 70 nM.

Turning to `CC(=O)c1cc2c(cc1NC(=O)CN1CCN(C(=O)C3CCCCO3)CC1)OCCO2` (stereo not shown) [compound 343], the IC50 amounted to 30 nM. Turning to `CC(=O)c1cc2c(cc1NC(=O)CN1CCN(C(=O)CC3CCOC3)CC1)OCCO2` (stereo not shown) [compound 344], the IC50 was 50 nM. As to `CC(=O)c1cc2c(cc1NC(=O)CN1CCN(C(=O)CN3CCCC3)CC1)OCCO2` [compound 345], the IC50 was greater than 10000 nM.

For `COC(=O)c1cc2c(cc1NC(=O)CN1CCN(C(=O)c3cn(C)nn3)CC1)OCO2` [compound 346], the IC50 worked out at 23 nM.

Consider `COCc1ccc(C(=O)N2CCN(CC(=O)Nc3cc4c(cc3C(=O)OC)OCO4)CC2)o1` [compound 347], for which the IC50 worked out at 83 nM. As to `COC(=O)c1cc2c(cc1NC(=O)CN1CCN(C(C)=O)CC1)OCO2` [compound 348], the IC50 turned out to be 166 nM. As for `CCCC(=O)N1CCN(CC(=O)Nc2cc3c(cc2C(=O)OC)OCO3)CC1` [compound 349], the IC50 came out at 244 nM.

As to `COC(=O)c1cc2c(cc1NC(=O)CN1CCN(C(=O)C3CCCO3)CC1)OCO2` (stereo not shown) [compound 350], the half-maximal inhibitory concentration (IC50) worked out at 299 nM. With `COC(=O)c1cc2c(cc1NC(=O)CN1CCN(C(=O)CC3CCCO3)CC1)OCO2` (stereo not shown) [compound 351] the figure was 439 nM; with `COC(=O)c1cc2c(cc1NC(=O)CN1CCN(C(=O)CN3CCOCC3)CC1)OCO2` [compound 352], 740 nM; with `COC(=O)c1cc2c(cc1NC(=O)CN1CCN(C(C)=O)CC1)CCCC2` [compound 353], 2100 nM. As to `COc1cc2c(cc1NC(=O)CN1CCN(C(=O)C3CCCO3)CC1)CCC2` (stereo not shown) [compound 354], the IC50 was 1900 nM. Consider `COc1cc2c(cc1NC(=O)CN1CCN(C(C)=O)CC1)CCC2` [compound 355], for which the IC50 worked out at 2500 nM. For the compound `COCc1cccc(C(=O)N2CCN(CC(=O)Nc3cc4c(cc3OC)OCO4)CC2)c1` [compound 356], the IC50 was 156 nM. `COCc1ccc(C(=O)N2CCN(CC(=O)Nc3cc4c(cc3OC)OCO4)CC2)s1` [compound 357]: the IC50 was 208 nM. For the compound `COCc1ccc(C(=O)N2CCN(CC(=O)Nc3cc4c(cc3OC)OCO4)CC2)cc1` [compound 358], the IC50 is 148 nM. Consider `COCc1nc(C(=O)N2CCN(CC(=O)Nc3cc4c(cc3OC)OCO4)CC2)cs1` [compound 359], for which the IC50 is 261 nM. Turning to `COc1cc2c(cc1NC(=O)CN1CCN(C(=O)c3cn(C)nn3)CC1)OCO2` [compound 360], the IC50 turned out to be 735 nM. In the case of `COCc1nc(C(=O)N2CCN(CC(=O)Nc3cc4c(cc3OC)OCO4)CC2)co1` [compound 361], the 50% inhibitory concentration (IC50) came out at 546 nM.

For the compound `COc1cc2c(cc1NC(=O)CN1CCN(C(=O)c3ncoc3C)CC1)OCO2` [compound 362], the IC50 is 567 nM. With `COc1cc2c(cc1NC(=O)CN1CCN(C(=O)c3cn(C)nc3C)CC1)OCO2` [compound 363] the figure was 600 nM; with `COc1cc2c(cc1NC(=O)CN1CCN(C(C)=O)CC1)OCO2` [compound 364], 1560 nM; with `COc1cc2c(cc1NC(=O)CN1CCN(C(=O)CN3CCOCC3)CC1)OCO2` [compound 365], 2640 nM. Regarding `COc1cc2c(cc1NC(=O)CN1CCN(C(=O)c3cccc(F)c3)CC1)OCO2` [compound 367], the IC50 amounted to 600 nM. For the compound `COc1ccc(C(=O)N2CCN(CC(=O)Nc3cc4c(cc3OC)OCO4)CC2)cc1` [compound 368], the IC50 was 600 nM.

For `COc1cccc(C(=O)N2CCN(CC(=O)Nc3cc4c(cc3OC)OCO4)CC2)c1` [compound 369], the IC50 was 300 nM. For `COc1cc2c(cc1NC(=O)CN1CCN(C(=O)Cc3ccccc3)CC1)OCO2` [compound 370], the IC50 came to 400 nM. Take `COc1cc2c(cc1NC(=O)CN1CCN(C(=O)Cc3ccc(F)cc3)CC1)OCO2` [compound 371]: the IC50 was found to be 900 nM. `COc1cc2c(cc1NC(=O)CN1CCN(C(=O)Cc3cccc(O)c3)CC1)OCO2` [compound 372]: the IC50 was determined as 400 nM. Consider `COc1cc2c(cc1NC(=O)CN1CCN(C(=O)Cc3ccc(O)cc3)CC1)OCO2` [compound 373], for which the IC50 worked out at 700 nM.

`COc1cccc(CC(=O)N2CCN(CC(=O)Nc3cc4c(cc3OC)OCO4)CC2)c1` [compound 374]: the IC50 is 300 nM. As to `COc1ccc(CC(=O)N2CCN(CC(=O)Nc3cc4c(cc3OC)OCO4)CC2)cc1` [compound 375], the IC50 came to 1000 nM. With `COc1cc2c(cc1NC(=O)CN1CCN(C(=O)Cc3ccccc3F)CC1)OCO2` [compound 376] the figure was 200 nM. With `COc1cc2c(cc1NC(=O)CN1CCN(C(=O)Cc3cccc(F)c3)CC1)OCO2` [compound 377] the figure was 200 nM. For `COc1cc2c(cc1NC(=O)CN1CCN(C(=O)Cc3ccncc3)CC1)OCO2` [compound 378], the IC50 is 1100 nM. `COc1cc2c(cc1NC(=O)CN1CCN(C(=O)c3ccccc3)CC1)OCO2` [compound 379]: the IC50 was 400 nM. `COc1cc2c(cc1NC(=O)CN1CCN(C(=O)c3ccc(O)cc3)CC1)OCO2` [compound 380]: the IC50 is 800 nM. For the compound `COc1cc2c(cc1NC(=O)CN1CCN(C(=O)c3ccc(O)c(O)c3)CC1)OCO2` [compound 381], the IC50 stood at 5000 nM. With `COc1cc2c(cc1NC(=O)CN1CCN(C(=O)c3cccc(C#N)c3)CC1)OCO2` [compound 382] the figure was 400 nM; with `COc1cc2c(cc1NC(=O)CN1CCN(C(=O)c3cccc(CO)c3)CC1)OCO2` [compound 383], 600 nM; with `COc1cc2c(cc1NC(=O)CN1CCN(C(=O)c3cc(C)oc3C)CC1)OCO2` [compound 384], 200 nM. Regarding `COc1cc2c(cc1NC(=O)CN1CCN(C(=O)c3cc[nH]n3)CC1)OCO2` [compound 385], the IC50 came to 700 nM. As for `COc1cc2c(cc1NC(=O)CN1CCN(C(=O)c3ccoc3)CC1)OCO2` [compound 386], the IC50 stood at 200 nM. For `COc1cc2c(cc1NC(=O)CN1CCN(C(=O)c3cnon3)CC1)OCO2` [compound 387], the IC50 was greater than 10000 nM. For the compound `COc1cc2c(cc1NC(=O)CN1CCN(C(=O)c3ncn[nH]3)CC1)OCO2` [compound 388], the IC50 was 2600 nM. On to `COc1cc2c(cc1NC(=O)CN1CCN(C(=O)c3cc(C)on3)CC1)OCO2` [compound 389], for which the IC50 was 400 nM. For the compound `COc1cc2c(cc1NC(=O)CN1CCN(C(=O)c3n[nH]cc3C)CC1)OCO2` [compound 390], the IC50 came to 2700 nM. As to `COc1cc2c(cc1NC(=O)CN1CCN(C(=O)c3nc(C)c[nH]3)CC1)OCO2` [compound 391], the IC50 came to 200 nM. Turning to `COc1cc2c(cc1NC(=O)CN1CCN(C(=O)c3c[nH]c(C)n3)CC1)OCO2` [compound 392], the IC50 was determined as 1300 nM.

As for `COc1cc2c(cc1NC(=O)CN1CCN(C(=O)c3ncc[nH]3)CC1)OCO2` [compound 393], the IC50 was 200 nM. As for `COc1cc2c(cc1NC(=O)CN1CCN(C(=O)c3cc(C)c(C)o3)CC1)OCO2` [compound 395], the IC50 is 100 nM.

`COCc1ccc(C(=O)N2CCN(CC(=O)Nc3cc4c(cc3OC)OCO4)CC2)o1` [compound 396]: the 50% inhibitory concentration (IC50) was found to be 100 nM. In the case of `COCc1cc(C(=O)N2CCN(CC(=O)Nc3cc4c(cc3OC)OCO4)CC2)no1` [compound 397], the IC50 came out at 770 nM. With `COc1cc2c(cc1NC(=O)CN1CCN(C(=O)c3ccc(CO)o3)CC1)OCO2` [compound 398], the IC50 was 630 nM. `COc1cc2c(cc1NC(=O)CN1CCN(C(=O)c3ncn[nH]3)CC1)OCO2` [compound 399]: the IC50 was 1400 nM. As for `COCc1cc(C(=O)N2CCN(CC(=O)Nc3cc4c(cc3OC)OCO4)CC2)no1` [compound 400], the IC50 turned out to be 300 nM. For `COc1cc2c(cc1NC(=O)CN1CCN(C(=O)Cc3ccoc3)CC1)OCO2` [compound 401], the IC50 stood at 130 nM. For the compound `COc1cc2c(cc1NC(=O)CN1CCN(C(=O)[C@H]3CCC(=O)O3)CC1)OCO2` [compound 402], the IC50 was 1100 nM.

`COc1cc2c(cc1NC(=O)C(C)N1CCN(C(C)=O)CC1)OCO2` (stereo not shown) [compound 403]: the IC50 worked out at 1400 nM. With `COc1cc2c(cc1NC(=O)CN1CCN(C(=O)C3CCCC3)CC1)OCO2` [compound 404] the figure was 300 nM; with `COc1cc2c(cc1NC(=O)CN1CCN(C(=O)C3CCCCC3C)CC1)OCO2` (stereo not shown) [compound 405], 1000 nM.

As to `COc1cc2c(cc1NC(=O)CN1CCN(C(=O)C3CCOC3)CC1)OCO2` (stereo not shown) [compound 406], the 50% inhibitory concentration (IC50) came out at 1800 nM. `COc1cc2c(cc1NC(=O)CN1CCN(C(=O)C3CCN(C)C3)CC1)OCO2` (stereo not shown) [compound 407]: the IC50 is greater than 10000 nM.
